One experiment concerns the target T1, 5-HT2 receptor (Rattus norvegicus, UniProt P14842).
T1 construct: The precipitate was used as the solution of receptor; from tissue; host or cells: rat brain (whole) crude membranes
The experiment in a line: Affinity to 5-HT2 receptor. The format is binding.

Another experiment addresses T2, D1 receptor (Rattus norvegicus, UniProt P18901).
T2 construct: The precipitate was used as the solution of receptor; from tissue; host or cells: rat brain (whole) crude membranes
The experiment in a line: Affinity to D1 receptor. The format is binding.

The next experiment has as its target 5-HT1 receptor. The experiment in a line: Affinity to 5-HT1 receptor. Conditions: read-out: Affinity to 5-HT1 receptor (MIC50; mole concentration for 50% inhibition of binding); 2 nM ^3H-5-HT. Set-up: species or system rat.
Another experiment addresses D2 receptor. The experiment in a line: Affinity to D2 receptor. More on the design: species or system rat. Particulars: read-out: Affinity to D2 receptor (MIC50; mole concentration for 50% inhibition of binding); 2.0 nM spiperone.
In a further experiment the target is α1 receptor. The experiment in a line: Affinity to α1 receptor. Set-up: species or system rat. Particulars: read-out: Affinity to α1 receptor (MIC50; mole concentration for 50% inhibition of binding); 0.25 nM ^3H-prazocin; 90 min. Here is the method: The solution of receptor was prepared as follows. As soon as rats were decapitated, brain was removed and its weight was measured. Its brain was homogenized in ten times volumes of ice-cold 0.35 M sucrose (pH 7.4) by glass homogenizer with teflon pestle which was revolted by motors. Thereafter, the homogenate was centrifuged at 4° C. at 900×g for 10 min and the supernatant was, furthermore, recentrifuged at 4° C. at 22,000×g for 20 min. The precipitate was suspended by addition of 5 mM phosphate buffer solution (pH 7.4). After the suspension was incubated at 37° C. for 30 min, the suspension was recentrifuged at 4° C. at 22,000×g for 20 min. The precipitate was resuspended by addition of 10 ml of 5 mM phosphate buffer solution (pH 8.0). The precipitate was used as the solution of receptor.
^3 H-prazocin was used as a ligand. 0.25 nM ^3 H-prazocin in 5 mM phosphate buffer (pH 8.0), the compound of this invention and the solution of receptor were added in tube and the mixture were incubated at 25° C. for 90 min. In addition, the […] binding was shown by binding value of ^3 H-prazocin under the coexistence with 0.1 μM prazocin. The binding reaction was carried out as follows. After ^3 H-prazocin (binding type: B) bound to receptor using glassfiberfilter (pore size: 0.5 μm, Whatman GF/C.) and free type of prazocin (free type: F) were separated with B/F separator (Brandel, USA), only the binding type of ^3 H-prazocin was collected. The binding type of ^3 H-prazocin absorbed to glass-fiber filter was washed with ice-cold saline solution and was remove to vial. After 10 ml of scintillation cocktail was added in it, the radioactivity was determined. From the binding inhibition rate of α1 receptor and ligand, affinity of the compounds of this invention to α1 receptor was measured.
If affinity of certain compound to a receptor is high, the binding ligand and receptor is inhibited.

In a further experiment the target is α2 receptor. The experiment in a line: Affinity to α2 receptor. More on the design: species or system rat. Conditions: read-out: Affinity to α2 receptor (MIC50; mole concentration for 50% inhibition of binding); 0.7 nM ^3H-rauwolscine.

A value given as a limit tells only on which side of the number the result lay.

T1 sequence (P14842 whole entry): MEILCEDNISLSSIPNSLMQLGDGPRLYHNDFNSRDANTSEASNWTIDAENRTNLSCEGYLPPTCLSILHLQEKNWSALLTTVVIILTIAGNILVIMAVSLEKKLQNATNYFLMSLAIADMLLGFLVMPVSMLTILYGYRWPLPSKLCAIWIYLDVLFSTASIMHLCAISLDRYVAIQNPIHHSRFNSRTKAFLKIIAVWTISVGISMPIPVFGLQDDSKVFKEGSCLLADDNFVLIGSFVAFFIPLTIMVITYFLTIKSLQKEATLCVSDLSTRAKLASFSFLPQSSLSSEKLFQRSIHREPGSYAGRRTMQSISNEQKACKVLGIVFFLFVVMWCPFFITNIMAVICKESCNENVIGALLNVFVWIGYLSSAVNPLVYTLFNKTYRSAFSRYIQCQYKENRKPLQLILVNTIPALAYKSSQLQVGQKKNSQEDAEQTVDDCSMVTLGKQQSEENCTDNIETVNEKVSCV
T2 sequence (P18901 whole entry): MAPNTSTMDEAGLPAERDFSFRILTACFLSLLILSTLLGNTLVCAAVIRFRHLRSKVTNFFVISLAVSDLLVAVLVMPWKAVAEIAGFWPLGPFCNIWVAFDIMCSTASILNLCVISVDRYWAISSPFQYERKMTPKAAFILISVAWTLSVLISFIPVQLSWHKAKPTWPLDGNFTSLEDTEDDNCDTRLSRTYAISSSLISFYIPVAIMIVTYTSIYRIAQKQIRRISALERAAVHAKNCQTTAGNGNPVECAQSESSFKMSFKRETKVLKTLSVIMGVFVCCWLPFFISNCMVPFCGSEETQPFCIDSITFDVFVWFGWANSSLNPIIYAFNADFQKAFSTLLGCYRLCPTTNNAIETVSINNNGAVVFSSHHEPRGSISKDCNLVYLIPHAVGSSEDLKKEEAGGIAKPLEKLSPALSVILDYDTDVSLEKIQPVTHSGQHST

For the molecule `CC(C)C[C@H]1C(=O)N2CCC[C@H]2[C@]2(O)O[C@](NC(=O)[C@@H]3C=C4c5cccc6[nH]c(Br)c(c56)C[C@H]4N(C)C3)(C(C)C)C(=O)N12` [Bromocriptine, reference compound], the IC50 on 5-HT2 receptor was 1 µM; on D1 receptor, 10 µM; on 5-HT1 receptor it was 0.1 µM; on D2 receptor it was 0.01 µM; at α1 receptor, 0.01 µM; on α2 receptor, 0.1 µM.

Turning to `C#CCN(C)[C@H](C)Cc1ccccc1` [Selegiline, reference compound], the IC50 is > 10 µM against 5-HT2 receptor; > 10 µM on 5-HT1 receptor; > 10 µM at D2 receptor; > 10 µM on α1 receptor; 2 µM at α2 receptor.

These data come from patent publication US6214859A, “Ethylamine derivatives” (Fujimoto Brothers Co., Ltd., priority 1997, dated 2001).
